Tests used:
CT-26 cells and MEFs = assay: H2O2-induced mtDNA release from cells in culture; format: cell-based, mouse; details: 20 μM compound, 100 or 200 μM H2O2, 20 h, CT-26 and MEFs
Protocol: Murine colorectal carcinoma cell line from a BALB/c mouse (CT26) and mouse embryonic fibroblast (MEF) cell lines were grown at 37° C. under an atmosphere of 95% air and 5% CO2 in DMEM supplemented with 10% FBS, 2 mM L-glutamine, 1,000 U/ml penicillin and 1 mg/ml streptomycin.
Cells were seeded (150,000 cells/well) in 6-well culture dishes to 40-60% confluence. After 24 h cells were incubated for 20 h with 100 or 200 μM of H2O2 in the absence or the presence of VBIT-4 and VBIT-12. Cells washed and subjected to mtDNA release as described below. For VDAC1 silencing, CT-26 cells were seeded (150,000 cells/well) in 6-well culture dishes to 40-60% confluence. After 24 h cells were transfected with 75 nM of non-targeting siRNA (si-NT) or siRNA targeting VDAC1 recognizing both human and mouse VDAC1 (si-m/hVDAC1) using the JetPRIME transfection reagent, according to the manufacturers' instructions. Forty-eight (48) h post-transfection with either si-NT or si-m/hVDAC1, cells were incubated for 20 h with 100 μM of H2O2. Cells washed and subject to mtDNA release as described below.
Cells (e.g., CT-26, MFFs) were re-suspended in 170 μl digitonin buffer containing 150 mM NaCl, 50 mM HEPES pH 7.4, and 25 μg/ml digitonin (EMD Millipore Corp). The homogenates are incubated on a rotator for 10 min at room temperature, followed by centrifugation at 16,000 g for 25 min at 4° C. […]

DSS-induced IBD mice [1] = assay: Dextran sodium sulfate (DSS)-induced colitis / IBD mouse model: weight, survival, colon and cecum length, clinical score, spleen weight; format: in vivo, C57BL/6 mice
DSS-induced IBD mice [2] = assay: as above; format: in vivo, C57BL/6 mice; remark: listed apart in the source
Text: Healthy female, specific pathogen free (SPF) C57BL/6 (H-2b), 6-7 weeks old mice were obtained from Invigo, Israel. Animal housing and care conditions was maintained according to the experimental protocols approved by the Institutional Animal Care and Use Committee. Mice were weighed and examined for health.
Animals were provided ad libitum a commercial rodent diet, and free access to either regular or DSS-containing drinking water for the respective designated test groups, supplied to each cage via polyethylene bottles with stainless steel sipper tubes.
Dextran sodium sulfate (DSS)-induced colitis was used.
All animals were subjected to experimental Colitis induction by providing DSS in the drinking water, continuously supplied ad libitum for 6 days, followed subsequently by 8 days of regular drinking water until study termination on day 14 (FIG. 1A).
Determination of individual body weights of mice was performed before disease induction and thereafter once daily, starting from study day 0 until the time of scheduled euthanasia of survivors on Day 14.
Animals were observed, and clinical signs recorded once daily starting from study day 1 and onwards until the time of scheduled euthanasia. Evaluation of clinical signs was scored according to the grading system listed below.
Immediately after euthanasia, the entire large intestine from the ileo-caecal junction to the anus were removed, weighed and the length of the colon was measured using a ruler.
The Maximal Scores of all mice in each group was be summed, and the MMS calculation was as follows: […]
The mean colon length of each group was calculated, and the percentage of shortening of the colon was calculated as follows: […]
The mean caecum length of each group was calculated, and the percentage of shortening of caecum was calculated as follows: […]

[3] = test system: colon of DSS-induced IBD mice; assay: Histological sections of colon of DSS-induced IBD mice (H&E, anti-VDAC1 immunostaining); format: in vivo, C57BL/6 mice
Text: FIGS. 6A-6D are micrographs of histological sections of DSS-induced IBD in C57BL/6 mice, stained with hematoxylin and eosin (H&E). Scale bar represents 100 μm. (6A) Control; (6B) 2.5% DSS; (6C) DSS+VBIT-4; and (6D) DSS+VBIT-12.
FIGS. 7A-7D are micrographs of histological sections of DSS-induced IBD in C57BL/6 mice highlighting the effects of VBIT-4 and VIBT-12 on the colon wall thickness and lymphatic infiltration thereto. (7A) Control; (7B) 2.5% DSS; (7C) DSS+VBIT-12; and […] DSS+VBIT-4.
FIGS. 8A-8D are micrographs of histological sections of DSS-induced IBD in C57BL/6 mice, immunostained with an anti VDAC-1 specific antibody. (8A) Control; (8B) 2.5% DSS; (8C) 2.5% DSS+VBIT-4; and (8D) 2.5% DSS+VBIT-12.
IBD colons were also found to contain large lymphatic sacks and also experienced high infiltration of inflammatory cells towards the colonic lumen.

[4] = DSS-induced IBD mice, 20 mg/kg, n=6
[5] = DSS-induced IBD mice, 20 mg/kg, value before the brackets
[6] = DSS-induced IBD mice, 20 mg/kg, value in brackets

Structure (SMILES): O=C(CC(CO)N1CCN(c2ccc(OC(F)(F)F)cc2)CC1)Nc1ccc(Cl)cc1 (centres unmarked) [VBIT-4, N-(4-chlorophenyl)-4-hydroxy-3-(4-(4-(trifluoromethoxy)phenyl)-piperazin-1-yl)butanamide]
- Release of mtDNA from cells induced by H2O2 (CT-26 cells and MEFs): inhibited
- Change (%) of weight, day 8 to day 15 (DSS-induced IBD mice [1]; 20 mg/kg, value in brackets): 13.9%
- Weight (gr) day 15 (DSS-induced IBD mice [1]; compound 20 mg/kg, day 15): 13.9 gr
- % Mortality (DSS-induced IBD mice [2]; 2.5% DSS, 20 mg/kg, n=6): 33.3%
- died (number of mice) (DSS-induced IBD mice [2]; 2.5% DSS, 20 mg/kg, n=6): 2
- Body weight at experiment termination versus DSS-induced IBD mice (in words) (DSS-induced IBD mice [2]; DSS-induced IBD mice): higher weights
- Survival rate at experiment termination versus DSS-induced IBD mice (in words) (DSS-induced IBD mice [2]; DSS-induced IBD mice): increased survival rates
- Cecum length, mm (DSS-induced IBD mice [2]; [4]): 8.7 ± 2.4 mm
- MMS (mean maximal score; stool consistency and rectal bleeding, 0-5) (DSS-induced IBD mice [2]; [4]): 3.05 ± 0.55
- Colon length, mm (DSS-induced IBD mice [2]; DSS-induced IBD mice, 20 mg/kg, n=6, at termination): 48.00 ± 4.84 mm
- Change of weight, day 1 to day 8 (absolute) (DSS-induced IBD mice [2]; [5]): −3.2 gr
- Change of weight, day 8 to day 15 (absolute) (DSS-induced IBD mice [2]; [5]): 1.7 gr
- Change (%) of weight, day 1 to day 8 (DSS-induced IBD mice [2]; [6]): −20.8%
- Colon, % Shortening relative to the DSS-induced control (=100) (DSS-induced IBD mice [2]; [6]): 73%
- Cecum, % Shortening (DSS-induced IBD mice [2]; DSS-induced IBD mice, 20 mg/kg, versus naive): 33.1%
- Colon, % Shortening (DSS-induced IBD mice [2]; DSS-induced IBD mice, 20 mg/kg, versus naive, value before the brackets): 26.2%
- Weight (gr) day 1 (DSS-induced IBD mice [2]; DSS-induced IBD mice, compound 20 mg/kg, day 1): 15.4 gr
- Weight (gr) day 8 (DSS-induced IBD mice [2]; DSS-induced IBD mice, compound 20 mg/kg, day 8): 12.2 gr
- Colon histology: inflammatory cells and infiltration ([3]; compared to IBD mice): fewer inflammatory cells with reduced/no infiltration activity
- Colon histology: colon wall thickness / villi ([3]; compared to IBD mice and non-IBD control): thinner colon walls
